Patent publication US20080207527A1, “Bicyclic Compounds Which Inhibit Beta-Secretase Activity and Methods of Use Thereof” (CoMentis, Inc., priority 2004, published 2008)

Experiments:
memapsin 2 = memapsin 2 (Homo sapiens, UniProt P56817); test: Inhibition of memapsin 2 beta-secretase activity toward fluorogenic substrate FS-2; assay type: biochemical; settings: pH 4, 37° C., 20 minutes pre-incubation, read-out: M2 Ki
Experimental: Potency of compounds were determined by measurement of their inhibition of memapsin 2 activity toward a fluorescent substrate. […] Briefly, assays were performed at pH 4, 37° C., by pre-incubation of memapsin 2 enzyme with compound for 20 minutes. Activity measure was initiated by addition of a fluorogenic substrate FS-2 (Bachem Americas, Torrance, Calif.). Fluorescent signal increase over time was measured as a rate of hydrolysis of the peptide substrate.

Cathepsin D = Cathepsin D (Homo sapiens, UniProt P07339); test: Inhibition of cathepsin D activity (substrate peptide hydrolysis, MALDI-TOF); assay type: biochemical; settings: pH 4.1, 37 degrees C., read-out: Cath D Ki
memapsin 1 = molecular target: T1, memapsin 1 (Homo sapiens, UniProt Q9Y5Z0); test: Inhibition of memapsin 1 beta-secretase activity (substrate peptide hydrolysis, MALDI-TOF); assay type: biochemical; settings: pH 4.1, 37 degrees C., read-out: M1 Ki
T1 sequence (Q9Y5Z0 63-518): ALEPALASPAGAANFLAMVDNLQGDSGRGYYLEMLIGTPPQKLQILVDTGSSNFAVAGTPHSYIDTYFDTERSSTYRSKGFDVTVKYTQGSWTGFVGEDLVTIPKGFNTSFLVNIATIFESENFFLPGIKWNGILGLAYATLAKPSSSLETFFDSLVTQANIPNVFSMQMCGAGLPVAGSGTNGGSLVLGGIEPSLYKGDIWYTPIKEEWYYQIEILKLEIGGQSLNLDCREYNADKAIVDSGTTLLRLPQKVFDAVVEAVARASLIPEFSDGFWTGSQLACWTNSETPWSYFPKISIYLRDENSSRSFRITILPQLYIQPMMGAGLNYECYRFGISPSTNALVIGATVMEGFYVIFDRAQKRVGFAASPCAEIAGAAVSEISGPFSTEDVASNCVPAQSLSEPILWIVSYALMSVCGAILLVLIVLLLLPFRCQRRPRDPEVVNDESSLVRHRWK

Aβ production = test: Cellular Aβ IC50 determination (Aβ40 sandwich ELISA); assay type: cell-based; settings: Cricetulus griseus, Chinese hamster ovary cells over-expressing human APP695 with London and Swedish mutations, 24 h
Experimental: The potency of compounds against memapsin 2 activity was determined in a cellular assay of Aβ production. […] Chinese hamster ovary cells that over-express human APP695 with the London and Swedish mutations were seeded in multi-well plates at 10% confluency. Compounds were dissolved in DMSO to concentrations near 1 mM, and diluted into culture media to a final concentration near 4 μM (final 0.4% DMSO). Compounds were diluted serially and applied to cells in multi-well plates 48 h after seeding. Incubation was continued in 5% CO2 at 37 degrees C. for 24 h. Aliquots were removed and assayed for Aβ40 content using a sandwich ELISA (BioSource International). Amount of Aβ40 over the range of concentration of compounds, relative to control incubations, were fit to a 4-parameter IC50 model.

Cathepsin D, sequence (P07339 65-412, species assumed): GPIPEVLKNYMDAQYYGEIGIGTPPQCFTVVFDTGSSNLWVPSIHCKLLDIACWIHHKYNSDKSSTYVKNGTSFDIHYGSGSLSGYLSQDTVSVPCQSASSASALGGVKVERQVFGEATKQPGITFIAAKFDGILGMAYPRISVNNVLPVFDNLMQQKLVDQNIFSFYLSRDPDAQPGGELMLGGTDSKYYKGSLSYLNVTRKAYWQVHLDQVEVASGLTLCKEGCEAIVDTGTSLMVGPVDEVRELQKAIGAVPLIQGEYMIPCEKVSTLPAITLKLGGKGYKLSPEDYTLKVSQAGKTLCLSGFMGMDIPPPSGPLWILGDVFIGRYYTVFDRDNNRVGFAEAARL
memapsin 2, sequence (P56817 46-501): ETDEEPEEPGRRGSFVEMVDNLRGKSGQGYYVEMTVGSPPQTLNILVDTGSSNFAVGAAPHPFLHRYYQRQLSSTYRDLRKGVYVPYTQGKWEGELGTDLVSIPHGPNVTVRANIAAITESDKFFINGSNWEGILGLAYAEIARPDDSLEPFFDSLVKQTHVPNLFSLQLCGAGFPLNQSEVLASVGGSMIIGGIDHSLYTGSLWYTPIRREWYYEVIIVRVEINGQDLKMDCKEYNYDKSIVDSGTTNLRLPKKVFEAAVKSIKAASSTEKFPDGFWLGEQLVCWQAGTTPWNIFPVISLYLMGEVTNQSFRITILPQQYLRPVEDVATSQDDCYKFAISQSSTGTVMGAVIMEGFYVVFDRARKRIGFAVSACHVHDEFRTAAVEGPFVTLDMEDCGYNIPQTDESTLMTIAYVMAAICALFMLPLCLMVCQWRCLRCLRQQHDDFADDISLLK

Row | Ki (memapsin 2) | Ki (Cathepsin D) | Ki (memapsin 1) | IC50 (Aβ production) | Structure (SMILES)
1 | 405 to 2000 nM | < 405 nM | < 405 nM | > 20000 nM | CCN(Cc1ccncc1)C(=O)c1cc(C)cc(C(=O)NC(CC(C)C)C(O)CC(C)C(=O)NC(C(=O)NCC(C)C)C(C)C)c1 (stereo not shown) [N1-ethyl-N3-(5-hydroxy-8-(1-(isobutylamino)-3-methyl-1-oxobutan-2-ylamino)-2,7-dimethyl-8-oxooctan-4-yl)-5-methyl-N1-(pyridin-4-ylmethyl)isophthalamide]
2 | < 405 nM | < 405 nM | < 405 nM | < 5000 nM | CCN1CCCC1CNC(=O)C(NC(=O)C(C)CC(O)C(CC(C)C)NC(=O)c1cc(C(=O)NC(C)c2ccccc2)cc(N(C)S(C)(=O)=O)c1)C(C)C (stereo not shown) [N1-(8-(1-((1-ethylpyrrolidin-2-yl)methylamino)-3-methyl-1-oxobutan-2-ylamino)-5-hydroxy-2,7-dimethyl-8-oxooctan-4-yl)-5-(N-methylmethylsulfonamido)-N3-(1-phenylethyl)isophthalamide]
3 | < 405 nM | 405 to 2000 nM | 405 to 2000 nM | < 5000 nM | CC(C)CC(NC(=O)c1cc(C(=O)NC(C)c2ccccc2)cc(N(C)S(C)(=O)=O)c1)C(O)CC(C)C(=O)NC(C(=O)NCC1CCCN1C)C(C)C (stereo not shown) [N1-(5-hydroxy-2,7-dimethyl-8-(3-methyl-1-((1-methylpyrrolidin-2-yl)methylamino)-1-oxobutan-2-ylamino)-8-oxooctan-4-yl)-5-(N-methylmethylsulfonamido)-N3-(1-phenylethyl)isophthalamide]
4 | < 405 nM | < 405 nM | < 405 nM | > 20000 nM | CC(C)CNC(=O)C(NC(=O)C(C)CC(O)C(CC(C)C)NC(=O)c1cccc(C(=O)N(C)C(C)c2ccccc2)c1)C(C)C (stereo not shown) [N1-(5-hydroxy-8-(1-(isobutylamino)-3-methyl-1-oxobutan-2-ylamino)-2,7-dimethyl-8-oxooctan-4-yl)-N3-methyl-N3-(1-phenylethyl)isophthalamide]
5 | 405 to 2000 nM | 405 to 2000 nM | 405 to 2000 nM | > 20000 nM | CC(C)CC(NC(=O)c1cc(C(=O)NC2c3ccccc3CC2O)cc(N(C)S(C)(=O)=O)c1)C(O)CC(C)C(=O)NC(C(=O)NC(C)C)C(C)C (stereo not shown) [N1-(2-hydroxy-2,3-dihydro-1H-inden-1-yl)-N3-(5-hydroxy-8-(1-(isopropylamino)-3-methyl-1-oxobutan-2-ylamino)-2,7-dimethyl-8-oxooctan-4-yl)-5-(N-methylmethylsulfonamido)isophthalamide]
6 | < 405 nM | < 405 nM | < 405 nM | < 5000 nM | CC(C)CC(NC(=O)c1cc(C(=O)NC(C)c2ccccc2)cc(N(C)S(C)(=O)=O)c1)C(O)CC(C)C(=O)NC(C(=O)NCc1ccccn1)C(C)C (stereo not shown) [N1-(5-hydroxy-2,7-dimethyl-8-(3-methyl-1-oxo-1-(pyridin-2-ylmethylamino)butan-2-ylamino)-8-oxooctan-4-yl)-5-(N-methylmethylsulfonamido)-N3-(1-phenylethyl)isophthalamide]
7 | < 405 nM | < 405 nM | < 405 nM | 5000 to 10000 nM | CC(=O)Nc1cc(C(=O)NC(C)c2ccccc2)cc(C(=O)NC(CC(C)C)C(O)CC(C)C(=O)NC(C(=O)NCC(C)C)C(C)C)c1 (stereo not shown) [5-acetamido-N1-(5-hydroxy-8-(1-(isobutylamino)-3-methyl-1-oxobutan-2-ylamino)-2,7-dimethyl-8-oxooctan-4-yl)-N3-(1-phenylethyl)isophthalamide]
8 | < 405 nM | < 405 nM | < 405 nM | < 5000 nM | CC(C)CC(NC(=O)c1cc(C(=O)NC(C)c2ccccc2)cc(N(C)S(C)(=O)=O)c1)C(O)CC(C)C(=O)NC(C(=O)NCc1ccncc1)C(C)C (stereo not shown) [N1-(5-hydroxy-2,7-dimethyl-8-(3-methyl-1-oxo-1-(pyridin-4-ylmethylamino)butan-2-ylamino)-8-oxooctan-4-yl)-5-(N-methylmethylsulfonamido)-N3-(1-phenylethyl)isophthalamide]
9 | 405 to 2000 nM | < 405 nM | < 405 nM | < 5000 nM | CC(C)CNC(=O)C(NC(=O)C(C)CC(O)C(CC(C)C)NC(=O)c1cc(C(=O)NC(C)c2ccccc2)cc(S(=O)(=O)N(C)C)c1)C(C)C (stereo not shown) [5-(N,N-dimethylsulfamoyl)-N1-(5-hydroxy-8-(1-(isobutylamino)-3-methyl-1-oxobutan-2-ylamino)-2,7-dimethyl-8-oxooctan-4-yl)-N3-(1-phenylethyl)isophthalamide]
10 | 405 to 2000 nM | 2000 to 5000 nM | > 5000 nM | 10000 to 20000 nM | CC(C)CC(NC(=O)c1cc(C(=O)NC(C)c2ccccc2)cc(N(C)S(C)(=O)=O)c1)C(O)CC(C)C(=O)NC(C)c1ccccc1 (stereo not shown) [N1-(5-hydroxy-2,7-dimethyl-8-oxo-8-(1-phenylethylamino)octan-4-yl)-5-(N-methylmethylsulfonamido)-N3-(1-phenylethyl)isophthalamide]
11 | > 5000 nM | > 5000 nM | > 5000 nM | 10000 to 20000 nM | COc1cccc(CNC(=O)C(C)CC(O)C(CC(C)C)NC(=O)c2cc(C(=O)NC(C)c3ccccc3)cc(N(C)S(C)(=O)=O)c2)c1 (stereo not shown) [N1-(5-hydroxy-8-(3-methoxybenzylamino)-2,7-dimethyl-8-oxooctan-4-yl)-5-(N-methylmethylsulfonamido)-N3-(1-phenylethyl)isophthalamide]
12 | < 405 nM | < 405 nM | < 405 nM | 5000 to 10000 nM | CCCN(CCC)C(=O)c1cccc(C(=O)NC(Cc2ccc(OC)cc2)C(O)CC(C)C(=O)NC(C(=O)NCC(C)C)C(C)C)c1 (stereo not shown) [N1-(3-hydroxy-6-(1-(isobutylamino)-3-methyl-1-oxobutan-2-ylamino)-1-(4-methoxyphenyl)-5-methyl-6-oxohexan-2-yl)-N3,N3-dipropylisophthalamide]
13 | 405 to 2000 nM | < 405 nM | 405 to 2000 nM | > 20000 nM | CC(C)CNC(=O)C(NC(=O)C(C)CC(O)C(CC(C)C)NC(=O)c1cccc(C(=O)N(C)Cc2cnccn2)c1)C(C)C (stereo not shown) [N1-(5-hydroxy-8-(1-(isobutylamino)-3-methyl-1-oxobutan-2-ylamino)-2,7-dimethyl-8-oxooctan-4-yl)-N3-methyl-N3-(pyrazin-2-ylmethyl)isophthalamide]
14 | < 405 nM | 405 to 2000 nM | 2000 to 5000 nM | > 20000 nM | Cc1csc(CNC(=O)c2cccc(C(=O)N[C@@H](CC(C)C)[C@@H](O)C[C@@H](C)C(=O)N[C@H](C(=O)NCC(C)C)C(C)C)c2)n1 [N1-(5-hydroxy-8-(1-(isobutylamino)-3-methyl-1-oxobutan-2-ylamino)-2,7-dimethyl-8-oxooctan-4-yl)-N3-((4-methylthiazol-2-yl)methyl)isophthalamide]
15 | < 405 nM | < 405 nM | 405 to 2000 nM | < 5000 nM | Cc1csc(CN(C)C(=O)c2cccc(C(=O)NC(CC(C)C)C(O)CC(C)C(=O)NC(C(=O)NCC(C)C)C(C)C)c2)n1 (stereo not shown) [N1-(5-hydroxy-8-(1-(isobutylamino)-3-methyl-1-oxobutan-2-ylamino)-2,7-dimethyl-8-oxooctan-4-yl)-N3-methyl-N3-((4-methylthiazol-2-yl)methyl)isophthalamide]
16 | 405 to 2000 nM | < 405 nM | < 405 nM | 10000 to 20000 nM | CCCN(CCC)C(=O)c1cccc(C(=O)NC(Cc2ccc(OC)c(Cl)c2)C(O)CC(C)C(=O)NC(C(=O)NCC(C)C)C(C)C)c1 (stereo not shown) [N1-(1-(3-chloro-4-methoxyphenyl)-3-hydroxy-6-(1-(isobutylamino)-3-methyl-1-oxobutan-2-ylamino)-5-methyl-6-oxohexan-2-yl)-N3,N3-dipropylisophthalamide]
17 | 2000 to 5000 nM | < 405 nM | 405 to 2000 nM | – | COc1ccc(C[C@H](NC(=O)c2cccc(C(=O)NCc3nc(C)cs3)c2)[C@@H](O)C[C@@H](C)C(=O)N[C@H](C(=O)NCC(C)C)C(C)C)cc1 [N1-(3-hydroxy-6-(1-(isobutylamino)-3-methyl-1-oxobutan-2-ylamino)-1-(4-methoxyphenyl)-5-methyl-6-oxohexan-2-yl)-N3-((4-methylthiazol-2-yl)methyl)isophthalamide]
18 | 405 to 2000 nM | < 405 nM | < 405 nM | – | COC(=O)N(C)c1cc(C(=O)NC(C)c2ccccc2)cc(C(=O)NC(CC(C)C)C(O)CC(C)C(=O)NC(C(=O)NCC(C)C)C(C)C)c1 (stereo not shown) [methyl 3-(5-hydroxy-8-(1-(isobutylamino)-3-methyl-1-oxobutan-2-ylamino)-2,7-dimethyl-8-oxooctan-4-ylcarbamoyl)-5-(1-phenylethylcarbamoyl)phenyl(methyl)carbamate]
